Experimental data from US7670767B1, “Genetic alterations associated with cancer” (The Regents of the University of California, priority 1997, dated 2010).

How the values were obtained:
OVCAR3 cells [1] = assay: MTT viability assay; type: cell-based, human
Description: NOE, MC[MUT] or OVCAR3 (as indicated) were starved of serum overnight and then cultured in 0.5% serum. […] Cell proliferation and viability assay was assessed before and after treatment with the PI3-kinase inhibitor LY294002 as follows. Cells were cultured in 96-well plates (15×10^3 cells/well) and serum starved overnight prior to the addition of LY294002 (Calbiochem) at various concentrations. […] For viability assay, cells were incubated with LY294002 as described above for 96 hours. MTT (25 ml of 5 ml/ml in PBS) was added to each well and incubated at 37° C. for 2 hours. Cells were then lysed by addition of 100 ml lysis buffer (20% SDS in 50% N,N-dimethylformamide, pH4.7). The cultures were set at 37° C. overnight and measured by microplate reader at 570 nm wavelength. Percent Maximum was converted from OD570 as indicated above.

OVCAR3 cells [2] = assay: programmed cell death, fluorescence based measurement of free DNA ends (Apo direct); set-up: species or system human
Description: This decrease in viability (FIG. 5B) was associated with an increased rate of programmed cell death at 24 (24% vs 51%) and 48 hour (22% vs 52%) as assessed by a fluorescence based measurement of free DNA ends Apo direct, Phoenix Flow Systems.

## O=c1cc(N2CCOCC2)oc2c(-c3ccccc3)cccc12 [LY294002]
OVCAR3 cells [1]; in serum free media
  times more sensitive to the effect of LY294002 (OVCAR3 vs NOE or MCF10F): 100 times
OVCAR3 cells [1]; in the presence of 0.5% FCS
  times more sensitive to the effect of LY294002 (OVCAR3 vs NOE or MCF10F): 10 times
OVCAR3 cells [2]; 24 hour, printed as 24% vs 51%
  rate of programmed cell death: 51%
OVCAR3 cells [2]; 48 hour, printed as 22% vs 52%
  rate of programmed cell death: 52%
